Values of other authors in patent US20130158016A1, “ANESTHETIC ASSOCIATION, ANESTHETIC COMPOSITION, AND […] VETERINARY USE” (Ouro Fino Participacoes e Empreendimentsos S/A, priority 2010, published 2013).

Test system: female dogs
Conditions: 2 mg/kg intravenously (slow), prophylactic

COc1cccc(C2(O)CCCCC2CN(C)C)c1 (stereo not drawn) [tramadol]
analgesia after ovariosalpingohisterectomy: analgesia similar to that produced by morphine
effect on expired concentration of isoflurane: reducing the expired concentration of isoflurane
neuroendocrine response to pain (catecholamine and cortisol): reducing the peaks of catecholamine and cortisol
